In ChEMBL document CHEMBL2331098, “Unprecedented polyketides from a marine sponge-associated Stachylidium sp” (J Nat Prod, 2013):
Calls of active or inactive are those of the source.

Assays:
[1] = biological target: 5-hydroxytryptamine receptor 1A (Homo sapiens) (UniProt P08908); test: Displacement of [3H]8-OH-DPAT from 5-HT1A receptor (unknown origin) at 10 uM
Homo sapiens [2] = species on record: Homo sapiens; test: Displacement of [3H]DTG from sigma2 receptor (unknown origin) at 10 uM
[3] = biological target: Alpha-2C adrenergic receptor (Homo sapiens) (UniProt P18825); test: Displacement of [3H]clonidine from alpha2C receptor (unknown origin) at 10 uM
Chain of Alpha-2C adrenergic receptor (Homo sapiens) (P18825 whole entry): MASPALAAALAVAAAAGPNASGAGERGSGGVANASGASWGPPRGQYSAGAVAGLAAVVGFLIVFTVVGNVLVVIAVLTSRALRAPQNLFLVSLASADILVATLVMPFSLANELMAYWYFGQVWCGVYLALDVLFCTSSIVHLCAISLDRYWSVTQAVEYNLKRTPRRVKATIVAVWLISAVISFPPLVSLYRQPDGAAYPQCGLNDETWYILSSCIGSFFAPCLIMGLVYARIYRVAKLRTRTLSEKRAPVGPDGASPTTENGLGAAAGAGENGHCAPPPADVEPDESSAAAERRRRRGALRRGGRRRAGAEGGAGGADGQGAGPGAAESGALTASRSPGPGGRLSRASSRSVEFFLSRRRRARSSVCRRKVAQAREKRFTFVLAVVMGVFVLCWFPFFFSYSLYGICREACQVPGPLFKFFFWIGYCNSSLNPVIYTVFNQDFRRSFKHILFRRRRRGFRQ

[4] = biological target: GABA-A receptor; agonist GABA site (Homo sapiens) (UniProt P14867+P47870+P28472+P48169+P34903+P18505+P47869+P31644+Q16445); test: Displacement of [3H]muscimol from GABAA receptor (unknown origin) at 10 uM; type: protein-complex assay
[5] = biological target: Beta-3 adrenergic receptor (Homo sapiens) (UniProt P13945); test: Displacement of [125I]iodopindolol from beta3 receptor (unknown origin) at 10 uM
Chain of Beta-3 adrenergic receptor (Homo sapiens) (P13945 whole entry, looked up): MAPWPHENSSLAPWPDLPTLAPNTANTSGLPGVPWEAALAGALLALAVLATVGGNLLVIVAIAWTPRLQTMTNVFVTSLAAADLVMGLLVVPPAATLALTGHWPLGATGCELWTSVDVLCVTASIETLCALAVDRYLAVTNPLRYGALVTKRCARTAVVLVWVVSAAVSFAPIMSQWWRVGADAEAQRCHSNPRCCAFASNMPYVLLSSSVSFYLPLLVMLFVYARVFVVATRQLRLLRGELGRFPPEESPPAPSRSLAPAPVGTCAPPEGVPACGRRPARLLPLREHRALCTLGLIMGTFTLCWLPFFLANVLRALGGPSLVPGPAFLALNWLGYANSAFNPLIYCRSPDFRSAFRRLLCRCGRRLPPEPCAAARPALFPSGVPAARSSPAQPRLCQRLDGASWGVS

[6] = biological target: 5-hydroxytryptamine receptor 2B (Homo sapiens) (UniProt P41595); test: Displacement of [3H]LSD from 5-HT2B receptor (unknown origin) at 10 uM
[7] = biological target: Muscarinic acetylcholine receptor M3 (Homo sapiens) (UniProt P20309); test: Displacement of [3H]QNB from M3 receptor (unknown origin) at 10 uM
[8] = biological target: Histamine H1 receptor (Homo sapiens) (UniProt P35367); test: Displacement of [3H]pyrilamine from H1 receptor (unknown origin) at 10 uM
[9] = biological target: Alpha-1B adrenergic receptor (Homo sapiens) (UniProt P35368); test: Displacement of [3H]prazosin from alpha1B receptor (unknown origin) at 10 uM
Rattus norvegicus = species on record: Rattus norvegicus; test: Displacement of [3H]flunitrazepam from rat brain BZP receptor (unknown origin) at 10 uM
[10] = biological target: Alpha-1D adrenergic receptor (Homo sapiens) (UniProt P25100); test: Displacement of radiolabeled ligand from alpha1D receptor (unknown origin) at 10 uM
[11] = biological target: Mu-type opioid receptor (Homo sapiens) (UniProt P35372); test: Displacement of [3H]DAMGO from mu opioid receptor (unknown origin) at 10 uM
[12] = biological target: 5-hydroxytryptamine receptor 2A (Homo sapiens) (UniProt P28223); test: Displacement of [3H]ketanserin from 5-HT2A receptor (unknown origin) at 10 uM
[13] = biological target: Sodium-dependent noradrenaline transporter (Homo sapiens) (UniProt P23975); test: Displacement of [3H]nisoxetine from NET (unknown origin) at 10 uM
Chain of Sodium-dependent noradrenaline transporter (Homo sapiens) (P23975 whole entry, looked up): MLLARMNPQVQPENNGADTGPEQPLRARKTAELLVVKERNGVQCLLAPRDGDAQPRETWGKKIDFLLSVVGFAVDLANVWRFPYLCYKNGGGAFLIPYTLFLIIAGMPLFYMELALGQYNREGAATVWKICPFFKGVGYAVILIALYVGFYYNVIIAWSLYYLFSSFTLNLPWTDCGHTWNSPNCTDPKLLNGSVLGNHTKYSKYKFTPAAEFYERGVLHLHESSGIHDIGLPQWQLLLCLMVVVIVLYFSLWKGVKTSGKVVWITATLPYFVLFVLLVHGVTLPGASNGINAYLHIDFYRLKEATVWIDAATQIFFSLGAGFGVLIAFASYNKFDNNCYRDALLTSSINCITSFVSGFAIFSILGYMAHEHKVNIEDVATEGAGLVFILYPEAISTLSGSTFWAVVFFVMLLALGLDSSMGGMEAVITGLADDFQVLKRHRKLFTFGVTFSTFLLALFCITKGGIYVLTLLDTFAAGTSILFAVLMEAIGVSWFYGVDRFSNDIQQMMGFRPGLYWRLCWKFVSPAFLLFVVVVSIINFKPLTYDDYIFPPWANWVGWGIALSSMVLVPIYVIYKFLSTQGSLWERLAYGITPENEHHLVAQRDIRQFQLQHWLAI

Mycotypha microspora = test: Antimicrobial activity against Mycotypha microspora; type: functional, organism-based
[14] = biological target: D(4) dopamine receptor (Homo sapiens) (UniProt P21917); test: Displacement of [3H]N-methylspiperone from D4 receptor (unknown origin) at 10 uM
Aspergillus ruber = test: Antimicrobial activity against Eurotium rubrum; type: functional, organism-based
[15] = biological target: D(1B) dopamine receptor (Homo sapiens) (UniProt P21918); test: Displacement of [3H][…] from D5 receptor (unknown origin) at 10 uM
[16] = biological target: D(2) dopamine receptor (Homo sapiens) (UniProt P14416); test: Displacement of [3H]N-methylspiperone from D2 receptor (unknown origin) at 10 uM
[17] = biological target: 5-hydroxytryptamine receptor 1D (Homo sapiens) (UniProt P28221); test: Displacement of [3H][…] from 5-HT1D receptor (unknown origin) at 10 uM
Chain of 5-hydroxytryptamine receptor 1D (Homo sapiens) (P28221 whole entry): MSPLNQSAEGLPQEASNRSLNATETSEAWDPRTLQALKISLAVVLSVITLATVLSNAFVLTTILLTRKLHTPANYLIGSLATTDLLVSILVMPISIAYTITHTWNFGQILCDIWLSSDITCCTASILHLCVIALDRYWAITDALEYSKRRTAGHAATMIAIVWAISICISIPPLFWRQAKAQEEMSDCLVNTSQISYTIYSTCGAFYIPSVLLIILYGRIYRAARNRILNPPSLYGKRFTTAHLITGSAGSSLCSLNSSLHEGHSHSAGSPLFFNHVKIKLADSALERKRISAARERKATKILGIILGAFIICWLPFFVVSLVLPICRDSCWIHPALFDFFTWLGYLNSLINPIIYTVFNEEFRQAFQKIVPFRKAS

[18] = biological target: Muscarinic acetylcholine receptor M2 (Homo sapiens) (UniProt P08172); test: Displacement of [3H]QNB from M2 receptor (unknown origin) at 10 uM
[19] = biological target: Beta-1 adrenergic receptor (Homo sapiens) (UniProt P08588); test: Displacement of [125I]iodopindolol from beta1 receptor (unknown origin) at 10 uM
[20] = biological target: 5-hydroxytryptamine receptor 6 (Homo sapiens) (UniProt P50406); test: Displacement of [3H]LSD from 5-HT6 receptor (unknown origin) at 10 uM
Chain of 5-hydroxytryptamine receptor 6 (Homo sapiens) (P50406 whole entry): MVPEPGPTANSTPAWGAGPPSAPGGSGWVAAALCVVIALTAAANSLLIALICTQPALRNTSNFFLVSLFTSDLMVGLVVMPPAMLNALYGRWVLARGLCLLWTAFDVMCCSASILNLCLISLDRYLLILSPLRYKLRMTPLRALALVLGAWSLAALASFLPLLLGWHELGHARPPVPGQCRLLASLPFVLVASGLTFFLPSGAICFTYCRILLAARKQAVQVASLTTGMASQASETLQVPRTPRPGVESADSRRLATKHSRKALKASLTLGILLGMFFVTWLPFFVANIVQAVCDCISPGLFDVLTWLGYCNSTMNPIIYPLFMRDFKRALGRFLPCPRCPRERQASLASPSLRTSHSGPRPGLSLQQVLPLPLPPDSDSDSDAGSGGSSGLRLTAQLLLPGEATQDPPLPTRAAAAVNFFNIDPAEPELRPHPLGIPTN

[21] = biological target: D(1A) dopamine receptor (Homo sapiens) (UniProt P21728); test: Displacement of [3H][…] from D1 receptor (unknown origin) at 10 uM
Chain of D(1A) dopamine receptor (Homo sapiens) (P21728 whole entry): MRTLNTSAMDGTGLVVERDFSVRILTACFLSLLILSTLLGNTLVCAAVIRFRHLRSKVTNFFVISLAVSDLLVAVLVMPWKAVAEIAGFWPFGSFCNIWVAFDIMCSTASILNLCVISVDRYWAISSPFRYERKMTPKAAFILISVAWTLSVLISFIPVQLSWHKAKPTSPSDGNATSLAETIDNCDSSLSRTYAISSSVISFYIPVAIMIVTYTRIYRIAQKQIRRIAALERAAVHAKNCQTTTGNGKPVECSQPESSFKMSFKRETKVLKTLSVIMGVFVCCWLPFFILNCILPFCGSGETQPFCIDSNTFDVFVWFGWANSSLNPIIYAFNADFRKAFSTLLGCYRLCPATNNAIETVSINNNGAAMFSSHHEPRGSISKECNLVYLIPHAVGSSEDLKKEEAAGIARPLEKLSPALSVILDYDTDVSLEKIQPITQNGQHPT

[22] = biological target: 5-hydroxytryptamine receptor 5A (Homo sapiens) (UniProt P47898); test: Displacement of [3H]LSD from 5-HT5A receptor (unknown origin) at 10 uM
[23] = biological target: 5-hydroxytryptamine receptor 3A (Homo sapiens) (UniProt P46098); test: Displacement of [3H]LY278584 from 5-HT3 receptor (unknown origin) at 10 uM
[24] = biological target: Muscarinic acetylcholine receptor M1 (Homo sapiens) (UniProt P11229); test: Displacement of [3H]QNB from M1 receptor (unknown origin) at 10 uM
Chain of Muscarinic acetylcholine receptor M1 (Homo sapiens) (P11229 whole entry): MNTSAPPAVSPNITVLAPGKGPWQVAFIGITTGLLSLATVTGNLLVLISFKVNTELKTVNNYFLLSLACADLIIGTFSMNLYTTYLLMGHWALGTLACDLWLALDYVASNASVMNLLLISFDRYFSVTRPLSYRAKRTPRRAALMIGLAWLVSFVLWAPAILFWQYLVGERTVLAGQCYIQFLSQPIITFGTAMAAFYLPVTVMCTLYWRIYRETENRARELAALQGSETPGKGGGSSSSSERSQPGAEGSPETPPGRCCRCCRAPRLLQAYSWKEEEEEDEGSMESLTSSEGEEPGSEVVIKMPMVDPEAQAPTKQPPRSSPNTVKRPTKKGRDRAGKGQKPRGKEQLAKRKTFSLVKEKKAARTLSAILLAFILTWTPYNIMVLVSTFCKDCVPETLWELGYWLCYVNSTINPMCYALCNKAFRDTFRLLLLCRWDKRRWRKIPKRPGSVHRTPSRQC

[25] = biological target: Histamine H2 receptor (Homo sapiens) (UniProt P25021); test: Displacement of [3H]tiotidine from H2 receptor (unknown origin) at 10 uM
[26] = biological target: Sodium-dependent dopamine transporter (Homo sapiens) (UniProt Q01959); test: Displacement of [3H]WIN35428 from DAT (unknown origin) at 10 uM
[27] = biological target: Sodium-dependent serotonin transporter (Homo sapiens) (UniProt P31645); test: Displacement of [3H]citalopram from SERT (unknown origin) at 10 uM
[28] = biological target: D(3) dopamine receptor (Homo sapiens) (UniProt P35462); test: Displacement of [3H]N-methylspiperone from D3 receptor (unknown origin) at 10 uM
[29] = biological target: Alpha-2A adrenergic receptor (Homo sapiens) (UniProt P08913); test: Displacement of [3H]clonidine from alpha2A receptor (unknown origin) at 10 uM
[30] = biological target: Sigma non-opioid intracellular receptor 1 (Homo sapiens) (UniProt Q99720); test: Displacement of [3H]pentazocine from sigma1 receptor (unknown origin) at 10 uM
[31] = biological target: Muscarinic acetylcholine receptor M4 (Homo sapiens) (UniProt P08173); test: Displacement of [3H]QNB from M4 receptor (unknown origin) at 10 uM
Chain of Muscarinic acetylcholine receptor M4 (Homo sapiens) (P08173 whole entry): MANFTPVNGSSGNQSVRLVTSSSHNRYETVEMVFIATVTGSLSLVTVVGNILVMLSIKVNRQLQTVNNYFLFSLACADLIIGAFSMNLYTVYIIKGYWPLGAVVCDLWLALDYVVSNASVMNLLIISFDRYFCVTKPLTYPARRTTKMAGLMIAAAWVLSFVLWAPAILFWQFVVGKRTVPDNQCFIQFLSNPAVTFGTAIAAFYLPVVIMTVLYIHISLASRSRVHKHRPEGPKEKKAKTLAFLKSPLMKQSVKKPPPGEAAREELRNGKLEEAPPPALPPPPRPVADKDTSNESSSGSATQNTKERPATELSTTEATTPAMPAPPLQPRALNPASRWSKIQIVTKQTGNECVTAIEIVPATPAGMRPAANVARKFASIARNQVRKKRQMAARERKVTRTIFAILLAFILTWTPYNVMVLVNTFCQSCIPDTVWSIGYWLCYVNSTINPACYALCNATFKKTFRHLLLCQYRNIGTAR

[32] = biological target: Histamine H4 receptor (Homo sapiens) (UniProt Q9H3N8); test: Displacement of [3H]histamine from H4 receptor (unknown origin) at 10 uM
[33] = biological target: 5-hydroxytryptamine receptor 1E (Homo sapiens) (UniProt P28566); test: Displacement of [3H]5-HT from 5-HT1E receptor (unknown origin) at 10 uM
Escherichia coli = test: Antimicrobial activity against Escherichia coli; type: functional, organism-based
[34] = biological target: Muscarinic acetylcholine receptor M5 (Homo sapiens) (UniProt P08912); test: Displacement of [3H]QNB from M5 receptor (unknown origin) at 10 uM
[35] = biological target: Alpha-1A adrenergic receptor (Homo sapiens) (UniProt P35348); test: Displacement of [3H]prazosin from alpha1A receptor (unknown origin) at 10 uM
[Chlorella] fusca = Antimicrobial activity against Chlorella fusca; type: functional, organism-based; conditions: Scenedesmus fuscus
[36] = biological target: Histamine H3 receptor (Homo sapiens) (UniProt Q9Y5N1); test: Displacement of [3H]alpha-methylhistamine from H3 receptor (unknown origin) at 10 uM
[37] = biological target: 5-hydroxytryptamine receptor 7 (Homo sapiens) (UniProt P34969); test: Displacement of [3H]LSD from 5-HT7 receptor (unknown origin) at 10 uM
Microbotryum violaceum = test: Antimicrobial activity against Microbotryum violaceum; type: functional, organism-based
Priestia megaterium = test: Antimicrobial activity against Bacillus megaterium; type: functional, organism-based
[38] = biological target: Alpha-2B adrenergic receptor (Homo sapiens) (UniProt P18089); test: Displacement of [3H]clonidine from alpha2B receptor (unknown origin) at 10 uM
[39] = biological target: 5-hydroxytryptamine receptor 2C (Homo sapiens) (UniProt P28335); test: Displacement of [3H]mesulergine from 5-HT2C receptor (unknown origin) at 10 uM
Chain of 5-hydroxytryptamine receptor 2C (Homo sapiens) (P28335 whole entry): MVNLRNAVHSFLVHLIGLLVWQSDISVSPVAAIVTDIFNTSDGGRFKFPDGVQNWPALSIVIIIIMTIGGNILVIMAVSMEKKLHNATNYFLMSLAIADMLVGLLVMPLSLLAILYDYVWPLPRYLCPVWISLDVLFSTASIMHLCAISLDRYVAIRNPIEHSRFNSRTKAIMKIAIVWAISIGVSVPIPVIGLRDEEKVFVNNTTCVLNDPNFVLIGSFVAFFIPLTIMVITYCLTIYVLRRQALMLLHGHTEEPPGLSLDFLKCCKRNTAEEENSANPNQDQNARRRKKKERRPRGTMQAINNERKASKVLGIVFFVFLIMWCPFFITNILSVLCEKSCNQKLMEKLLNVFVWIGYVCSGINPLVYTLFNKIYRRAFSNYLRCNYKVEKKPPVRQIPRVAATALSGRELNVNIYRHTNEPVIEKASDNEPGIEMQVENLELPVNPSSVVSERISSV

[40] = biological target: 5-hydroxytryptamine receptor 1B (Homo sapiens) (UniProt P28222); test: Displacement of [3H][…] from 5-HT1B receptor (unknown origin) at 10 uM
Chain of 5-hydroxytryptamine receptor 1B (Homo sapiens) (P28222 whole entry): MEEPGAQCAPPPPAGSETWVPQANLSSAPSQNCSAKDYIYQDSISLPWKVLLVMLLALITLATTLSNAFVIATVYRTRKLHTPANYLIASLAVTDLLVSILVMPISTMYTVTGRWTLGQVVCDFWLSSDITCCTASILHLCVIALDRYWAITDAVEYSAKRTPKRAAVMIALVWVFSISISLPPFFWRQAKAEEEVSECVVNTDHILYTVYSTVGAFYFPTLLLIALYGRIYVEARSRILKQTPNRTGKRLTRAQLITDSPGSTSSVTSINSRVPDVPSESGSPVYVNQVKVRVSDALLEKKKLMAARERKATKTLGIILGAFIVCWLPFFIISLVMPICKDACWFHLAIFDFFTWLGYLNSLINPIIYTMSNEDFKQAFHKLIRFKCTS

[41] = biological target: Beta-2 adrenergic receptor (Homo sapiens) (UniProt P07550); test: Displacement of [125I]iodopindolol from beta2 receptor (unknown origin) at 10 uM
[42] = biological target: Kappa-type opioid receptor (Homo sapiens) (UniProt P41145); test: Displacement of [3H]U69593 from kappa opioid receptor (unknown origin) at 10 uM
[43] = biological target: Delta-type opioid receptor (Homo sapiens) (UniProt P41143); test: Displacement of [3H]DADLE from delta opioid receptor (unknown origin) at 10 uM
Adipocyte [44] = test: Induction of glucose uptake in mouse primary adipocyte cells at 100 uM; type: functional, cell-based
[45] = biological target: T1, Peroxisome proliferator-activated receptor (Homo sapiens) (UniProt P37231+Q07869+Q03181); test: Activity at PPAR (unknown origin) by PPAR co-activator assay; type: protein assay
NCI-H460 = test: Cytotoxicity against human NCI-H460 cells at 100 uM; type: functional, cell-based
[46] = biological target: Tyrosine-protein phosphatase non-receptor type 1 (Homo sapiens) (UniProt P18031); test: Inhibition of PTP1B (unknown origin)
Chain of Tyrosine-protein phosphatase non-receptor type 1 (Homo sapiens) (P18031 whole entry): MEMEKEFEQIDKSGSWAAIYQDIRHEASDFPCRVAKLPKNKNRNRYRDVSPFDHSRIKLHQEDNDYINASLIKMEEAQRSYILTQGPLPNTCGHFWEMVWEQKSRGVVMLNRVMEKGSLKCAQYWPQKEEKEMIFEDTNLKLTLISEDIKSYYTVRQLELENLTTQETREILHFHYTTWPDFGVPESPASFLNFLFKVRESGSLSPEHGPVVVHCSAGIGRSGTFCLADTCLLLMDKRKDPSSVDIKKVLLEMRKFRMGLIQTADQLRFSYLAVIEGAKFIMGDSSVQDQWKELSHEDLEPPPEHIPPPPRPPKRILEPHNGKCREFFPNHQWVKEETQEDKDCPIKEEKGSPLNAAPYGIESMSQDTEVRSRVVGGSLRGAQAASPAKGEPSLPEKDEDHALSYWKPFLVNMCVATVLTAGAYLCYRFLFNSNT

SF-268 = test: Cytotoxicity against human SF268 cells at 100 uM; type: functional, cell-based
Adipocyte [47] = test: Induction of glucose uptake in rat primary adipocyte cells at 100 uM; type: functional, cell-based
Homo sapiens [48] = species on record: Homo sapiens; test: Inhibition of NF-kappaB protein complex (unknown origin) at 100 uM
MCF7 = test: Cytotoxicity against human MCF7 cells at 100 uM; type: functional, cell-based
[49] = biological target: T1, Peroxisome proliferator-activated receptor (Homo sapiens); test: Activity at PPAR (unknown origin) by PPAR ligand assay; type: protein assay
3T3-L1 = test: Induction of glucose uptake in mouse 3T3L1 cells at 100 uM; type: functional, cell-based

COCc1c(C(C)O)cc(O)c(C)c1OC (configuration not stated)
inactive: inhibition [1] | inhibition (Homo sapiens [2]) | inhibition [3] | inhibition [4] | inhibition [5] | inhibition [6] | inhibition [7] | inhibition [8] | inhibition [9] | inhibition (Rattus norvegicus) | inhibition [10] | inhibition [11] | inhibition [12] | inhibition [13] | Activity (Mycotypha microspora) | inhibition [14] | Activity (Aspergillus ruber) | inhibition [15] | inhibition [16] | inhibition [17] | inhibition [18] | inhibition [19] | inhibition [20] | inhibition [21] | inhibition [22] | inhibition [23] | inhibition [24] | inhibition [25] | inhibition [26] | inhibition [27] | inhibition [28] | inhibition [29] | inhibition [30] | inhibition [31] | inhibition [32] | inhibition [33] | Activity (Escherichia coli) | inhibition [34] | inhibition [35] | Activity ([Chlorella] fusca) | inhibition [36] | inhibition [37] | Activity (Microbotryum violaceum) | Activity (Priestia megaterium) | inhibition [38] | inhibition [39] | inhibition [40] | inhibition [41] | inhibition [42] | inhibition [43]

CCc1cc(O)c(C)c(OC)c1CC(C)C(=O)CC(O)CC (configuration not stated)
inactive: Activity (Mycotypha microspora) | Activity (Aspergillus ruber) | Activity (Escherichia coli) | Activity ([Chlorella] fusca) | Activity (Microbotryum violaceum) | Activity (Priestia megaterium)

COc1c(C)c(O)cc2c1C(O)CC2=O (configuration not stated)
inactive: inhibition (Adipocyte [44]) | Activity [45] | Activity (Mycotypha microspora) | Activity (NCI-H460) | Activity (Aspergillus ruber) | inhibition [46] | Activity (SF-268) | inhibition (Adipocyte [47]) | Activity (Homo sapiens [48]) | Activity (MCF7) | Activity [49] | Activity (Escherichia coli) | Activity ([Chlorella] fusca) | inhibition (3T3-L1) | Activity (Microbotryum violaceum) | Activity (Priestia megaterium)

COc1c(C)c(OC/C=C(\C)CCC=C(C)C)cc2c1[C@H](OC)O[C@]2(C)OC
inactive: Activity (Mycotypha microspora) | Activity (Aspergillus ruber) | Activity (Homo sapiens [48]) | Activity (Escherichia coli) | Activity ([Chlorella] fusca) | Activity (Microbotryum violaceum) | Activity (Priestia megaterium)

CCc1cc(O)c(C)c(=O)o1
inactive: inhibition (Adipocyte [44]) | Activity [45] | Activity (Mycotypha microspora) | Activity (Aspergillus ruber) | inhibition [46] | inhibition (Adipocyte [47]) | Activity [49] | Activity (Escherichia coli) | Activity ([Chlorella] fusca) | inhibition (3T3-L1) | Activity (Microbotryum violaceum) | Activity (Priestia megaterium)

COCc1c(CO)cc(O)c(C)c1OC
inactive: Activity (Mycotypha microspora) | Activity (Aspergillus ruber) | Activity (Escherichia coli) | Activity ([Chlorella] fusca) | Activity (Microbotryum violaceum) | Activity (Priestia megaterium)

COc1c(C)c(OC/C=C(\C)CCC=C(C)C)cc2c1[C@H](OC)O[C@@]2(C)OC
inactive: Activity (Mycotypha microspora) | Activity (NCI-H460) | Activity (Aspergillus ruber) | Activity (SF-268) | Activity (Homo sapiens [48]) | Activity (MCF7) | Activity (Escherichia coli) | Activity ([Chlorella] fusca) | Activity (Microbotryum violaceum) | Activity (Priestia megaterium)
